Data as given in the NIST ThermoML archive (doi:10.1021/je100832h).

Columns and labels:
[1] = xn = mol fraction of the nth substance listed; details: 101.32 kPa, Liquid, Vibrating tube method
[2] = excess molar enthalpy (molar enthalpy of mixing); xn = mol fraction of the nth substance listed; details: 101 kPa, Liquid, Calvet calorimetry

CCOC(C)=O [ethyl acetate] + CCCCCC
Details	excess molar enthalpy [kcal/mol]	mass density [kg/m3]
[1], 291.15 K, x1 = 0.0165	–	663.7
[1], 291.15 K, x1 = 0.0655	–	671.62
[1], 291.15 K, x1 = 0.1077	–	678.72
[1], 291.15 K, x1 = 0.1823	–	692.02
[1], 291.15 K, x1 = 0.1962	–	694.54
[1], 291.15 K, x1 = 0.2716	–	709.09
[1], 291.15 K, x1 = 0.3518	–	725.37
[1], 291.15 K, x1 = 0.4166	–	739.37
[1], 291.15 K, x1 = 0.5519	–	770.91
[1], 291.15 K, x1 = 0.6225	–	788.69
[1], 291.15 K, x1 = 0.6795	–	803.74
[1], 291.15 K, x1 = 0.7429	–	821.35
[1], 291.15 K, x1 = 0.8048	–	839.41
[1], 291.15 K, x1 = 0.898	–	868.3
[1], 291.15 K, x1 = 0.9604	–	888.98
[1], 291.15 K, x1 = 0.9833	–	896.93
[1], 291.15 K, x1 = 1	–	902.88
[1], 298.15 K, x1 = 0.0704	–	666.2
[1], 298.15 K, x1 = 0.127	–	675.7
[1], 298.15 K, x1 = 0.193	–	687.4
[1], 298.15 K, x1 = 0.2383	–	695.9
[1], 298.15 K, x1 = 0.2909	–	706.1
[1], 298.15 K, x1 = 0.3466	–	717.4
[1], 298.15 K, x1 = 0.444	–	738.3
[1], 298.15 K, x1 = 0.4935	–	749.5
[1], 298.15 K, x1 = 0.5355	–	759.4
[1], 298.15 K, x1 = 0.5869	–	772
[1], 298.15 K, x1 = 0.6255	–	781.8
[1], 298.15 K, x1 = 0.7012	–	801.9
[1], 298.15 K, x1 = 0.7532	–	816.4
[1], 298.15 K, x1 = 0.8292	–	838.8
[1], 298.15 K, x1 = 0.8612	–	848.7
[1], 298.15 K, x1 = 0.9233	–	868.5
[1], 298.15 K, x1 = 0.9469	–	876.3
[1], 298.15 K, x1 = 1	–	894.4
[1], 318.15 K, x1 = 0.0336	–	641.5
[1], 318.15 K, x1 = 0.0764	–	648.1
[1], 318.15 K, x1 = 0.1448	–	659.3
[1], 318.15 K, x1 = 0.2606	–	679.9
[1], 318.15 K, x1 = 0.276	–	682.8
[1], 318.15 K, x1 = 0.3316	–	693.5
[1], 318.15 K, x1 = 0.3976	–	707
[1], 318.15 K, x1 = 0.4495	–	718.1
[1], 318.15 K, x1 = 0.5054	–	730.6
[1], 318.15 K, x1 = 0.5551	–	742.2
[1], 318.15 K, x1 = 0.6085	–	755.1
[1], 318.15 K, x1 = 0.7048	–	779.9
[1], 318.15 K, x1 = 0.7523	–	792.9
[1], 318.15 K, x1 = 0.7984	–	806
[1], 318.15 K, x1 = 0.8419	–	818.8
[1], 318.15 K, x1 = 0.8854	–	832.2
[1], 318.15 K, x1 = 0.9305	–	846.4
[1], 318.15 K, x1 = 1	–	869.6
[1], 328.15 K, x1 = 0.0433	–	633.2
[1], 328.15 K, x1 = 0.0847	–	639.6
[1], 328.15 K, x1 = 0.1691	–	653.4
[1], 328.15 K, x1 = 0.2349	–	664.88
[1], 328.15 K, x1 = 0.307	–	678
[1], 328.15 K, x1 = 0.3708	–	690.6
[1], 328.15 K, x1 = 0.4318	–	703.25
[1], 328.15 K, x1 = 0.4918	–	716.3
[1], 328.15 K, x1 = 0.5567	–	731.2
[1], 328.15 K, x1 = 0.6075	–	743.4
[1], 328.15 K, x1 = 0.6523	–	754.6
[1], 328.15 K, x1 = 0.7238	–	773.4
[1], 328.15 K, x1 = 0.7577	–	782.7
[1], 328.15 K, x1 = 0.8221	–	800.9
[1], 328.15 K, x1 = 0.8723	–	815.8
[1], 328.15 K, x1 = 0.9135	–	828.6
[1], 328.15 K, x1 = 0.9832	–	851.3
[1], 328.15 K, x1 = 1	–	857.17
[2], 291.15 K, x1 = 0.0535	0.0674	–
[2], 291.15 K, x1 = 0.1148	0.139	–
[2], 291.15 K, x1 = 0.1974	0.215	–
[2], 291.15 K, x1 = 0.2736	0.275	–
[2], 291.15 K, x1 = 0.3368	0.309	–
[2], 291.15 K, x1 = 0.3855	0.33	–
[2], 291.15 K, x1 = 0.4401	0.344	–
[2], 291.15 K, x1 = 0.4918	0.348	–
[2], 291.15 K, x1 = 0.5333	0.345	–
[2], 291.15 K, x1 = 0.5714	0.341	–
[2], 291.15 K, x1 = 0.6212	0.329	–
[2], 291.15 K, x1 = 0.6753	0.309	–
[2], 291.15 K, x1 = 0.722	0.282	–
[2], 291.15 K, x1 = 0.7805	0.247	–
[2], 291.15 K, x1 = 0.8412	0.199	–
[2], 291.15 K, x1 = 0.8816	0.153	–
[2], 291.15 K, x1 = 0.9343	0.0937	–
[2], 291.15 K, x1 = 0.9802	0.0349	–
[2], 298.15 K, x1 = 0.0668	0.0865	–
[2], 298.15 K, x1 = 0.1168	0.137	–
[2], 298.15 K, x1 = 0.192	0.21	–
[2], 298.15 K, x1 = 0.2621	0.261	–
[2], 298.15 K, x1 = 0.3186	0.289	–
[2], 298.15 K, x1 = 0.3929	0.319	–
[2], 298.15 K, x1 = 0.439	0.329	–
[2], 298.15 K, x1 = 0.495	0.326	–
[2], 298.15 K, x1 = 0.5309	0.324	–
[2], 298.15 K, x1 = 0.5767	0.315	–
[2], 298.15 K, x1 = 0.6196	0.304	–
[2], 298.15 K, x1 = 0.6757	0.286	–
[2], 298.15 K, x1 = 0.7368	0.255	–
[2], 298.15 K, x1 = 0.7954	0.215	–
[2], 298.15 K, x1 = 0.8424	0.17	–
[2], 298.15 K, x1 = 0.8998	0.117	–
[2], 298.15 K, x1 = 0.9521	0.0605	–
[2], 318.15 K, x1 = 0.076	0.11	–
[2], 318.15 K, x1 = 0.1524	0.195	–
[2], 318.15 K, x1 = 0.2306	0.259	–
[2], 318.15 K, x1 = 0.3029	0.3	–
[2], 318.15 K, x1 = 0.3659	0.325	–
[2], 318.15 K, x1 = 0.4345	0.339	–
[2], 318.15 K, x1 = 0.488	0.338	–
[2], 318.15 K, x1 = 0.5143	0.335	–
[2], 318.15 K, x1 = 0.5368	0.333	–
[2], 318.15 K, x1 = 0.5617	0.331	–
[2], 318.15 K, x1 = 0.6098	0.32	–
[2], 318.15 K, x1 = 0.6645	0.301	–
[2], 318.15 K, x1 = 0.7202	0.273	–
[2], 318.15 K, x1 = 0.7788	0.235	–
[2], 318.15 K, x1 = 0.8406	0.184	–
[2], 318.15 K, x1 = 0.9004	0.125	–
[2], 318.15 K, x1 = 0.9547	0.0638	–
